For assay [1], the system named is cattle. As to the kind of experiment: Oral administration (gavage) to cattle: serum NEFA and SUN levels. Format: in vivo, cattle (Angus/Angus cross steer calves). As to conditions: 1 mg per kilogram body weight oral gavage, mean of five animals; for change in vivo at 1 mg/kg: Bos taurus. The protocol: In the present example, fifteen head of Angus/Angus cross steer calves, weighing approximately 484 pounds (220 kg) initially to 604 pounds (274 kg) by the end of these three trials, were placed in pens in the cattle facilities, at 5 calves per pen. Standard vaccination and coccidal control were administered.
Calves were fed ad libitum twice daily, approximately 10-15 pounds (4.54-6.81 kg)/day. The feeding times were staggered once treatment was initiatedto ensure that all calves were fed approximately one hour before the treatments were administered and blood samples were obtained. During the A.M. treatment period, the cattle were prevented from returning to feed until the +180 minute blood sample had been collected.
Treatments were administered once a day via oral gavage. The treatments contained 1 mg of test compound per kilogram body weight and were administered in a 50/50 PEG 200/water vehicle, followed with a flush of 20 mls of 50/50 PEG 200/water.
A baseline blood sample (T=0) was taken immediately before the oral gavage treatment was administered. At 90 minutes post-treatment (T+90 min) another blood sample was taken. The cattle were returned to their designated pens until 180 minutes post-treatment (T+180 min), when a third blood sample was collected. The calves were not allowed access to their feed until they had completed the 180 minute blood sample. Additional blood samples were collected from each calf at 24 and 48 hours post treatment.
All blood samples were taken from the jugular vein and placed into serum tubes. Serum was assayed on an IL Monarch analyzer. Blood samples were collected pretreatment (T=0), 90 minutes post-treatment (T+90 min), 180 minutes post-treatment (T+180 min) and 24 hours post-treatment (T+24 h) and 48 hours post-treatment (T+48 h). Sera at T=0, T+90 min, T+180 min, T+24 h, and T+48 h were analyzed for NEFA and SUN.

Another assay concerns chickens. The assay is described as follows: Anabolic effects when administered in feed to chickens. Format: in vivo, chicken (Peterson-Hubbard male chicks). The source says:
Approximately 1500 Peterson-Hubbard day-old male chicks were used in a randomized, complete block design with 6 treatments (Control; Clenbuterol at 1 PPM; Compound 1 at 3 and 15 PPM (mg/kg feed); and Compound 5 at 3 and 15 PPM) using pen location in the barn as the blocking factor. Treatments were randomly allotted to pens within each block for a total of 6 pens per block and 6 blocks in the wing. Each treatment consisted of 6 pens, with 10 birds per pen, during the experimental period.
Day-of-age birds were obtained from Pine Manor Hatchery in Goshen, Ind. Approximately 40 birds per pen were setup at random upon receipt. On day 30 of the growout period, all birds were weighed and the 15 birds closest to the block mean were selected. These birds were allowed to acclimate until day 35 of age. On this day, all remaining birds were weighed again, and the 10 birds/pen closest to the block mean were chosen for the treatment phase. Birds were provided ad libitum access to feed and water throughout the trial. All birds were fed a 23% crude protein corn-soy ration from day 1 until day 18 of age. The feed was changed to a 20% crude protein corn-soy ration for day 18 to day 49. The treatment feed was mixed using the 20% crude protein corn-soy basal ration. Treatments were administered in the feed from day 35 through day 49. Feed consumption was calculated over the entire 14 day treatment period. Birds were weighed at trial completion (day 49), and transported to Purdue University meat laboratory for slaughter and carcass measurements on day 50. Weights of the hot carcass, fat pad, and viscera were taken on all animals. Weights of the bone-in, skin-on breast, and the bone-in, skin-on leg quarters were taken only on the control treatment and the high doses of both experimental compounds.

For assay [2], the system named is cattle. As to the kind of experiment: Intravenous administration to cattle: serum NEFA and SUN levels. Format: in vivo, cattle (Angus/Angus cross calves). The note with it: mean of five animals; for Δ % SUN 24 Hours (percent decrease in serum urea nitrogen compared with baseline T=0) / ΔNEFA 24 Hours (increase in NEFA in blood compared with baseline T=0): 40 μg per kilogram intravenously at 6:30 A.M. and 2:30 P.M., 24 hours post treatment; for ΔNEFA 15 Min. (increase in NEFA in blood compared with baseline T=0): 40 μg per kilogram intravenously, 15 minutes post treatment. An excerpt:
Angus/Angus cross steer calves, both heifers and steers, weighing approximately 282 pounds (128 kg) initially to 788 pounds (358 kg) over the course of these studies, were placed in pens at 5 calves per pen. The cattle were acclimated to the pens for at least 1 week prior to initiating the study.
Calves were fed ad libitum twice daily, (approximately 6-15 pounds (2.7-6.8 kg)/day). During the treatment day, in the A.M. period, the feeding times were staggered to ensure that all animals were fed approximately one hour before the treatments were administered. During the P.M. treatment period, the cattle were fed immediately after receiving the P.M. injection.
After taking a pretreatment (T=0) blood sample from each animal, 40 μg per kilogram of a test compound was administered intravenously in the jugular vein at 6:30 A.M. and 2:30 P.M. Each test compound was administered at a concentration of 1.00-1.25 mg/ml in a treatment vehicle that was a 50/50 mixture of polyethylene glycol 200/water.
A blood sample was taken at fifteen minutes post-treatment (T+15 min). The calves were returned to their respective pens until their next treatment, approximately eight hours later. The next morning at 6:30 A.M. a blood sample was collected from all calves at 24 hours post-treatment (T+24h). All blood samples were analyzed for the non-esterified fatty acid level (NEFA) and serum urea nitrogen level (SUN). The post-treatment NEFA and SUN levels in each individual animal were compared with the levels found before treatment.

Setting [3] is: 24 hours post treatment, read-out: Δ % SUN 24 Hours (percent decrease in serum urea nitrogen compared with baseline T=0).
[4] abbreviates: 48 hours post treatment, read-out: Δ % SUN 48 Hours (percent decrease in serum urea nitrogen compared with baseline T=0).
Setting [5] is: 1 PPM in feed, 14 day treatment period.
Setting [6] is: 3 PPM in feed, 14 day treatment period.
Setting [7] is: 3 PPM in feed, 14 day treatment period (day 35 to 49).
The mark [8] stands for this setting: 15 PPM in feed, 14 day treatment period.
[9] abbreviates: 15 PPM in feed, 14 day treatment period (day 35 to 49).

Read-outs that look alike come from different tables or passages of the source.

Consider `CC(C)(Cc1ccc(Oc2ccc(C(N)=O)cc2)cc1)NC[C@H](O)COc1cccc2[nH]c(=S)[nH]c12`, for which the “ΔNEFA 24 Hours (increase in NEFA in blood compared with baseline T=0)” value in the assay on cattle [1] (24 hours post treatment) came out at 17 µmol/L. The values for the change in vivo at 1 mg/kg with cattle [1] (setting [3]) and with cattle [1] (setting [4]) were -8% and -12%, respectively.
Take `CC(C)(Cc1ccc(Oc2ncccc2C(N)=O)cc1)NC[C@H](O)COc1cccc2[nH]ccc12`: in the assay on cattle [1] (24 hours post treatment), the “ΔNEFA 24 Hours (increase in NEFA in blood compared with baseline T=0)” value is -30 µmol/L. For the same molecule, the results for the change in vivo at 1 mg/kg in the assay on cattle [1] (setting [3]) and in the assay on cattle [1] (setting [4]) were -42% and -30%, respectively.
As to `CC(C)(Cc1ccc(Oc2ncccc2C(N)=O)cc1)NC[C@H](O)COc1cccc2[nH]c(=S)[nH]c12`, the “ΔNEFA 24 Hours (increase in NEFA in blood compared with baseline T=0)” value with cattle [1] (24 hours post treatment) turned out to be 101 µmol/L. The change in vivo at 1 mg/kg in the assay on cattle [1] (setting [3]) is -17%; in the assay with cattle [1] (setting [4]) it was -13%.
Turning to `CC(C)(Cc1ccc(Oc2ncccc2C(N)=O)cc1)NC[C@H](O)COc1cccc2[nH]c(=O)[nH]c12`, the “ΔNEFA 24 Hours (increase in NEFA in blood compared with baseline T=0)” value in the assay on cattle [1] (24 hours post treatment) came out at 10 µmol/L. Moreover, the change in vivo at 1 mg/kg is -22% with cattle [1] (setting [3]) and -19% in the assay on cattle [1] (setting [4]).
The matching figures for `CC(C)(Cc1ccc(Oc2ccc(C#N)cn2)cc1)NC[C@H](O)COc1cccc2[nH]ccc12`: 63 µmol/L, -55% and -40%.
Turning to `CC(C)(Cc1ccc(Oc2ccc(C#N)cn2)cc1)NC[C@H](O)COc1cccc2[nH]c(=O)[nH]c12`, in the assay on cattle [1] (24 hours post treatment), the “ΔNEFA 24 Hours (increase in NEFA in blood compared with baseline T=0)” value was found to be 18 µmol/L. Besides, the change in vivo at 1 mg/kg turned out to be 2% with cattle [1] (setting [3]) and 5% with cattle [1] (setting [4]).
Consider `CC(C)(Cc1ccc(Oc2ccc(C(=O)N3CCOCC3)cn2)cc1)NC[C@H](O)COc1cccc2[nH]ccc12`, for which, in the assay with cattle [1] (24 hours post treatment), the “ΔNEFA 24 Hours (increase in NEFA in blood compared with baseline T=0)” value is -47 µmol/L. The change in vivo at 1 mg/kg in the assay with cattle [1] (setting [3]) is -45%; in the assay with cattle [1] (setting [4]), -28%.
`CC(C)(Cc1ccc(Oc2ccc(C(=O)N3CCOCC3)cn2)cc1)NC[C@H](O)COc1cccc2[nH]c(=S)[nH]c12`: in the assay on cattle [1] (24 hours post treatment), the “ΔNEFA 24 Hours (increase in NEFA in blood compared with baseline T=0)” value came out at 6 µmol/L. Further, the results for the change in vivo at 1 mg/kg with cattle [1] (setting [3]) and in the assay on cattle [1] (setting [4]) were -18% and -15%, respectively.
The corresponding values for `CC(C)(Cc1ccc(Oc2ccc(S(C)(=O)=O)cc2)cc1)NC[C@H](O)COc1cccc2[nH]c(=S)[nH]c12` are 37 µmol/L, -1% and -5%.
With `CC(C)(Cc1ccc(Oc2ccc(S(C)(=O)=O)cc2)cc1)NC[C@H](O)COc1cccc2[nH]c(=O)[nH]c12`, the “ΔNEFA 24 Hours (increase in NEFA in blood compared with baseline T=0)” value in the assay with cattle [1] (24 hours post treatment) was -6 µmol/L. For the same molecule, the change in vivo at 1 mg/kg was -10% with cattle [1] (setting [3]) and -6% in the assay with cattle [1] (setting [4]).
For the molecule `CC(C)(C)NCC(O)c1cc(Cl)c(N)c(Cl)c1` (stereo not shown) [Clenbuterol], in the assay with chickens (setting [5]), the “improvement in feed conversion versus control” value is on record as “did not show an improvement” and the “increase in weight gain over control” value stood at 3.54%.
On to `CC(C)(Cc1ccc(Oc2ccc(C(N)=O)cn2)cc1)NC[C@H](O)COc1cccc2[nH]ncc12` [Compound 1], for which the “Δ % SUN 24 Hours (percent decrease in serum urea nitrogen compared with baseline T=0)” value in the assay with cattle [2] was −28.7%. Besides, the results for the “ΔNEFA 24 Hours (increase in NEFA in blood compared with baseline T=0)” value in the assay on cattle [2] and in the assay on cattle [1] (24 hours post treatment) were 820.9 µmol/L and 329 µmol/L, respectively. The “ΔNEFA 15 Min. (increase in NEFA in blood compared with baseline T=0)” value in the assay on cattle [2] is 554.4 µmol/L. For the same molecule, the change in vivo at 1 mg/kg was -38% with cattle [1] (setting [3]) and -32% in the assay with cattle [1] (setting [4]). For the same molecule, the results for the “improvement of feed efficiency” value in the assay on chickens (setting [6]) and with chickens (setting [8]) were “not improved” and 4.67%, respectively. Also, the results for the “increase in weight gain over control” value in the assay with chickens (setting [7]) and with chickens (setting [9]) were 3.54% and 11.50%, respectively.
Consider `CC(C)(Cc1ccc(Oc2ccc(C#N)cn2)cc1)NC[C@H](O)COc1cccc2[nH]ncc12` [Compound 3], for which, in the assay on cattle [2], the “Δ % SUN 24 Hours (percent decrease in serum urea nitrogen compared with baseline T=0)” value was −24.7%, the “ΔNEFA 24 Hours (increase in NEFA in blood compared with baseline T=0)” value was determined as 1069.3 µmol/L and the “ΔNEFA 15 Min. (increase in NEFA in blood compared with baseline T=0)” value turned out to be 269.4 µmol/L. In the assay on cattle [1] (24 hours post treatment), the “ΔNEFA 24 Hours (increase in NEFA in blood compared with baseline T=0)” value was determined as 349 µmol/L. The change in vivo at 1 mg/kg in the assay with cattle [1] (setting [3]) is -58%. Further, in the assay on cattle [1] (setting [4]), the change in vivo at 1 mg/kg was -57%.
As to `CC(C)(Cc1ccc(Oc2ccc(C(=O)N3CCOCC3)cn2)cc1)NC[C@H](O)COc1cccc2[nH]ncc12` [Compound 4], in the assay on cattle [2], the “Δ % SUN 24 Hours (percent decrease in serum urea nitrogen compared with baseline T=0)” value is on record as −40.1%, the “ΔNEFA 24 Hours (increase in NEFA in blood compared with baseline T=0)” value came to 1251.8 µmol/L and the “ΔNEFA 15 Min. (increase in NEFA in blood compared with baseline T=0)” value stood at 194.8 µmol/L. Moreover, in the assay on cattle [1] (24 hours post treatment), the “ΔNEFA 24 Hours (increase in NEFA in blood compared with baseline T=0)” value is 1129 µmol/L. Moreover, the change in vivo at 1 mg/kg in the assay on cattle [1] (setting [3]) is -47%. Besides, the change in vivo at 1 mg/kg in the assay with cattle [1] (setting [4]) is -48%.
In the case of `CC(C)(Cc1ccc(Oc2ccc(S(C)(=O)=O)cc2)cc1)NC[C@H](O)COc1cccc2[nH]ncc12` [Compound 5], the “Δ % SUN 24 Hours (percent decrease in serum urea nitrogen compared with baseline T=0)” value in the assay with cattle [2] is −25.4%. In addition, the “ΔNEFA 24 Hours (increase in NEFA in blood compared with baseline T=0)” value with cattle [2] was found to be 1541.9 µmol/L; with cattle [1] (24 hours post treatment) it was 1216 µmol/L. Moreover, the “ΔNEFA 15 Min. (increase in NEFA in blood compared with baseline T=0)” value in the assay on cattle [2] turned out to be 397.3 µmol/L. Also, the change in vivo at 1 mg/kg with cattle [1] (setting [3]) is -33%; in the assay on cattle [1] (setting [4]), -60%. Also, the “improvement of feed efficiency” value in the assay on chickens (setting [6]) is on record as “not improved”; with chickens (setting [8]) it was 3.27%. The entries for the “increase in weight gain over control” value in the assay on chickens (setting [7]) and in the assay with chickens (setting [9]) were 2.65% and 8.85%, respectively.

Source of the values: patent publication US6534504B1, “Indazolyloxy propanolamines for improving livestock production” (Eli Lilly and Company, priority 1999, dated 2003).
